Test system: OVCAR-5 complex spheroids, viability
Experiment: Anticancer human tumor OVCAR-5 cell line growth inhibition;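 also: spheroids exposed to agents for seven days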;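 as to viability, T/C: 100% = DMSO vehicle control wells viability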
Conditions: for IC50: curve of first compound; for viability, T/C: stronger effect = lower value
How it was run: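 Multicellular complex spheroids of tumor cells with human endothelial cells (HUVEC) and mesenchymal stem cells; the LSD1 inhibitor iadademstat was combined with standard-of-care or investigational agents. Top concentration at or near clinical Cmax, half-log dilutions; final DMSO ≤0.25%.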

[1] = second compound 0.1 µM, first compound 0.00316 µM
[2] = second compound 0.1 µM, first compound 0.01 µM
[3] = second compound 0.1 µM, first compound 0.0316 µM
[4] = second compound 0.1 µM, first compound 0.1 µM
[5] = second compound 0.1 µM, first compound 0.316 µM
[6] = second compound 0.1 µM, first compound 1 µM
[7] = second compound 0.316 µM, first compound 0.00316 µM
[8] = second compound 0.316 µM, first compound 0.01 µM
[9] = second compound 0.316 µM, first compound 0.0316 µM
[10] = second compound 0.316 µM, first compound 0.1 µM
[11] = second compound 0.316 µM, first compound 0.316 µM
[12] = second compound 0.316 µM, first compound 1 µM
[13] = second compound 1 µM, first compound 0.00316 µM
[14] = second compound 1 µM, first compound 0.01 µM
[15] = second compound 1 µM, first compound 0.0316 µM
[16] = second compound 1 µM, first compound 0.1 µM
[17] = second compound 1 µM, first compound 0.316 µM
[18] = second compound 1 µM, first compound 1 µM
[19] = second compound 3.16 µM, first compound 0.00316 µM
[20] = second compound 3.16 µM, first compound 0.01 µM
[21] = second compound 3.16 µM, first compound 0.0316 µM
[22] = second compound 3.16 µM, first compound 0.1 µM
[23] = second compound 3.16 µM, first compound 0.316 µM
[24] = second compound 3.16 µM, first compound 1 µM
[25] = second compound 10 µM, first compound 0.00316 µM
[26] = second compound 10 µM, first compound 0.01 µM
[27] = second compound 10 µM, first compound 0.0316 µM
[28] = second compound 10 µM, first compound 0.1 µM
[29] = second compound 10 µM, first compound 0.316 µM
[30] = second compound 10 µM, first compound 1 µM

O=C(C=Cn1cnc(-c2cc(C(F)(F)F)cc(C(F)(F)F)c2)n1)NNc1cnccn1 + NC1CC1c1ccc(-c2cccc(O)c2)cc1
IC50 (second compound 0.1 µM): 55.6 nM
IC50 (second compound 0.316 µM): 50.5 nM
IC50 (second compound 1 µM): 39.1 nM
IC50 (second compound 3.16 µM): 23 nM
IC50 (second compound 10 µM): 19.8 nM
viability, T/C [1]: 88.9%
viability, T/C [2]: 73.9%
viability, T/C [3]: 57.2%
viability, T/C [4]: 42.1%
viability, T/C [5]: 38%
viability, T/C [6]: 33.9%
viability, T/C [7]: 87.8%
viability, T/C [8]: 72%
viability, T/C [9]: 54.9%
viability, T/C [10]: 42.2%
viability, T/C [11]: 39.1%
viability, T/C [12]: 34.4%
viability, T/C [13]: 84%
viability, T/C [14]: 65.9%
viability, T/C [15]: 53.8%
viability, T/C [16]: 39.4%
viability, T/C [17]: 36.2%
viability, T/C [18]: 31.7%
viability, T/C [19]: 81.7%
viability, T/C [20]: 62.9%
viability, T/C [21]: 43.1%
viability, T/C [22]: 38.5%
viability, T/C [23]: 34.7%
viability, T/C [24]: 29.7%
viability, T/C [25]: 79%
viability, T/C [26]: 60.8%
viability, T/C [27]: 42.6%
viability, T/C [28]: 36.6%
viability, T/C [29]: 33.6%
viability, T/C [30]: 35.2%

COc1cc(C2c3cc4c(cc3C(OC3OC5COC(C)OC5C(O)C3O)C3COC(=O)C23)OCO4)cc(OC)c1O (stereo not given) + NC1CCC(NC2CC2c2ccccc2)CC1
IC50 (second compound 0.1 µM): 836 nM
IC50 (second compound 0.316 µM): 763 nM
IC50 (second compound 1 µM): 890 nM
IC50 (second compound 3.16 µM): 737 nM
IC50 (second compound 10 µM): 712 nM
viability, T/C (second compound 0.1 µM, first compound 0.00949 µM): 113%
viability, T/C (second compound 0.1 µM, first compound 0.03 µM): 105%
viability, T/C (second compound 0.1 µM, first compound 0.0949 µM): 100%
viability, T/C (second compound 0.1 µM, first compound 0.3 µM): 73.5%
viability, T/C (second compound 0.1 µM, first compound 0.949 µM): 45.6%
viability, T/C (second compound 0.1 µM, first compound 3 µM): 41.4%
viability, T/C (second compound 0.316 µM, first compound 0.00949 µM): 106%
viability, T/C (second compound 0.316 µM, first compound 0.03 µM): 106%
viability, T/C (second compound 0.316 µM, first compound 0.0949 µM): 100%
viability, T/C (second compound 0.316 µM, first compound 0.3 µM): 71%
viability, T/C (second compound 0.316 µM, first compound 0.949 µM): 43.6%
viability, T/C (second compound 0.316 µM, first compound 3 µM): 43.9%
viability, T/C (second compound 1 µM, first compound 0.00949 µM): 98.7%
viability, T/C (second compound 1 µM, first compound 0.03 µM): 106%
viability, T/C (second compound 1 µM, first compound 0.0949 µM): 103%
viability, T/C (second compound 1 µM, first compound 0.3 µM): 76.7%
viability, T/C (second compound 1 µM, first compound 0.949 µM): 50%
viability, T/C (second compound 1 µM, first compound 3 µM): 44.2%
viability, T/C (second compound 3.16 µM, first compound 0.00949 µM): 99.9%
viability, T/C (second compound 3.16 µM, first compound 0.03 µM): 105%
viability, T/C (second compound 3.16 µM, first compound 0.0949 µM): 103%
viability, T/C (second compound 3.16 µM, first compound 0.3 µM): 70.9%
viability, T/C (second compound 3.16 µM, first compound 0.949 µM): 42.8%
viability, T/C (second compound 3.16 µM, first compound 3 µM): 45.4%
viability, T/C (second compound 10 µM, first compound 0.00949 µM): 89.4%
viability, T/C (second compound 10 µM, first compound 0.03 µM): 93%
viability, T/C (second compound 10 µM, first compound 0.0949 µM): 82.9%
viability, T/C (second compound 10 µM, first compound 0.3 µM): 67.7%
viability, T/C (second compound 10 µM, first compound 0.949 µM): 42.5%
viability, T/C (second compound 10 µM, first compound 3 µM): 40.9%

Nc1ncn(C2CC(O)C(CO)O2)c(=O)n1 (stereo not given) + NC1CCC(NC2CC2c2ccccc2)CC1
IC50 (second compound 0.1 µM): > 1000 nM
IC50 (second compound 0.316 µM): > 1000 nM
IC50 (second compound 1 µM): > 1000 nM
IC50 (second compound 3.16 µM): > 1000 nM
IC50 (second compound 10 µM): > 1000 nM
viability, T/C [1]: 103%
viability, T/C [2]: 104%
viability, T/C [3]: 94.4%
viability, T/C [4]: 89.5%
viability, T/C [5]: 75.5%
viability, T/C [6]: 79%
viability, T/C [7]: 97.7%
viability, T/C [8]: 104%
viability, T/C [9]: 81.4%
viability, T/C [10]: 79.6%
viability, T/C [11]: 78.4%
viability, T/C [12]: 78.4%
viability, T/C [13]: 91.8%
viability, T/C [14]: 82.3%
viability, T/C [15]: 79.6%
viability, T/C [16]: 81.3%
viability, T/C [17]: 76%
viability, T/C [18]: 73.7%
viability, T/C [19]: 91.6%
viability, T/C [20]: 93.3%
viability, T/C [21]: 78.2%
viability, T/C [22]: 76.8%
viability, T/C [23]: 70.5%
viability, T/C [24]: 66.6%
viability, T/C [25]: 83.7%
viability, T/C [26]: 83.1%
viability, T/C [27]: 79.1%
viability, T/C [28]: 67.1%
viability, T/C [29]: 61.9%
viability, T/C [30]: 66%

From PubChem BioAssay AID1918956 (Molecular Pharmacology Branch, DTP, NCI, 2023)
